For three molecules, IC50 results are on record in BindingDB's records for doi:10.3109/14756366.2011.649269 (Università di Firenze, 2013).

The structures appear in SMILES notation.

What all share (assay): Carbonic Anhydrase I, II, IV and XII Assay
Settings in all cases: pH 7.5; 25 °C

One test deals with Carbonic anhydrase 1 (Homo sapiens, UniProt P00915). Here is the method:
(§1) An Applied Photophysics stopped-flow instrument has been used for assaying the CA catalysed CO2 hydration activity [Khalifah et al., J. Biol. Chem., 246:2561-2573]. Phenol red (at a concentration of 0.2 mM) has been used as indicator, working at the absorbance maximum of 557 nm, with 10-20 mM Hepes (pH 7.5) as buffer, and 20 mM Na2SO4 (for maintaining constant the ionic strength), following the initial rates of the CA-catalyzed CO2 hydration reaction for a period of 10-100 s. The CO2 concentrations ranged from 1.7 to 17 mM for the determination of the kinetic parameters and inhibition constants. For each inhibitor at least six traces of the initial 5-10% of the reaction have been used for determining the initial velocity. The uncatalyzed rates were determined in the same manner and subtracted from the total observed rates. Stock solutions of inhibitor (10 mM) were prepared in distilled-deionised water and dilutions up to 0.01 nM were done thereafter with distilled-deionised water. Inhibitor and enzyme solutions were preincubated together for 15 min at room temperature prior to assay, in order to allow for the formation of the E-I complex.

In the next test the target is Carbonic anhydrase 12 (Homo sapiens, UniProt O43570). How it is done: as §1
In the next test the target is Carbonic anhydrase 2 (Homo sapiens, UniProt P00918). Here is the method: as §1
The target in another test is Carbonic anhydrase 4 (Homo sapiens, UniProt P22748). Here is the method: as §1
Carbonic anhydrase 4, sequence (P22748 whole entry): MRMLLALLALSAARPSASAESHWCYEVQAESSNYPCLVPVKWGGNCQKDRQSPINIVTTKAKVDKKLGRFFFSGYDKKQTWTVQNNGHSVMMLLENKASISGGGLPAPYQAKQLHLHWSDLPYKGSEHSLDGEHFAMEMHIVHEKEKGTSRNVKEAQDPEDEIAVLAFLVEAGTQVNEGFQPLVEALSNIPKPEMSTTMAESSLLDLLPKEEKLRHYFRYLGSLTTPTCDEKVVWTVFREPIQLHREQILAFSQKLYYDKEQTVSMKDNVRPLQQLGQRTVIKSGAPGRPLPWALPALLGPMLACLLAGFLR

Carbonic anhydrase 1, sequence (P00915 whole entry): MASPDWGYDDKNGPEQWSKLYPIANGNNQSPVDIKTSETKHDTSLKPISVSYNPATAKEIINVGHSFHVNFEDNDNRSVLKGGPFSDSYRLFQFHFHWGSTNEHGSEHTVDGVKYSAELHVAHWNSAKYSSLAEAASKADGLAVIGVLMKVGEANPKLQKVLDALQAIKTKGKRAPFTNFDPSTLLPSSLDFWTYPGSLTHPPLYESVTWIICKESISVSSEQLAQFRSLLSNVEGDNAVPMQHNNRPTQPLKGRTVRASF
Carbonic anhydrase 12, sequence (O43570 whole entry): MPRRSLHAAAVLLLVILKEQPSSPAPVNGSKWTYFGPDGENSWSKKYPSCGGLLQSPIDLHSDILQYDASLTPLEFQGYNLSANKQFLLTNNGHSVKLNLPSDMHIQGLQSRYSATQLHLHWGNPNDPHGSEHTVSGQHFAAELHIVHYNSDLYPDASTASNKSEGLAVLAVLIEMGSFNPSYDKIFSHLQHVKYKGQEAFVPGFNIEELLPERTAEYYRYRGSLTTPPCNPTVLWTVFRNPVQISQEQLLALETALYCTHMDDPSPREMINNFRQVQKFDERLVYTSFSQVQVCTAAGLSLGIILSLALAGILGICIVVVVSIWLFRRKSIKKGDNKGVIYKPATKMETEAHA

Usually IC50 stands for the concentration needed to halve the response being measured. As to `NS(=O)(=O)c1ccc(C(=O)NCCCN2CCOCC2)cc1` [4-Sulfamoyl-N-(3-morpholinopropyl)benzamide (I-1)], the IC50 was found to be 231 nM at Carbonic anhydrase 1, 645 nM against Carbonic anhydrase 12, 216 nM at Carbonic anhydrase 2 and 611 nM on Carbonic anhydrase 4.

On to `NS(=O)(=O)c1ccc(S(=O)(=O)NCCCN2CCOCC2)cc1` [N-(3-morpholinopropyl)benzene-1,4-disulfonamide (I-2)], for which the IC50 on Carbonic anhydrase 1 was 57.7 nM; on Carbonic anhydrase 12 it was 517 nM; against Carbonic anhydrase 2, 65.8 nM; on Carbonic anhydrase 4, 499 nM.

Turning to `CCN(CC)CCOc1ccc(CNS(=O)(=O)c2ccc(S(N)(=O)=O)cc2)cc1` [N-(4-diethylaminoethoxybenzyl)benzene-1,4-bis-sulfonamide (I-3)], the IC50 at Carbonic anhydrase 1 is 59.8 nM; against Carbonic anhydrase 12, 737 nM; at Carbonic anhydrase 2 it was 81.1 nM; against Carbonic anhydrase 4 it was 508 nM.
